# Legend:
# [1] = test system: control sera (pooled serum of ten healthy LUMC hospital workers; commercial negative donor pooled serum from the Dutch bloodbank); type: binding, human; set-up: Binding of Control serum LUMC to linear peptides / Binding of Control serum Blood-bank to linear peptides / Binding of Control serum LUMC to looped peptides / Binding of Control Serum Blood-Bank to Looped peptides / Binding of Control serum LUMC to linear peptides of the protein M of SARS-CoV Urbani / Binding of Control serum Blood-bank to linear peptides of the protein M of SARS-CoV Urbani / Binding of Control serum LUMC to looped peptides of the protein M of SARS-CoV Urbani / Binding of Control Serum Blood-Bank to Looped peptides of the protein M of SARS-CoV Urbani: unit not given here
# [2] = test system: rabbit serum obtained by immunizing a rabbit with the SARS-CoV strain Frankfurt 1; type: binding; set-up: Binding of a rabbit serum to linear peptides / Binding of a rabbit serum to looped peptides / Rabbit serum linear peptides / Rabbit serum looped peptides / Binding of a rabbit serum to linear peptides of protein N of SARS-CoV Urbani (Rabbit serum linear peptides) / Binding of a rabbit serum to looped/cyclic peptides of protein N of SARS-CoV Urbani (Rabbit serum looped peptides): unit not given here
Sequence,Rabbit serum linear peptides [2],Rabbit serum looped peptides [2],Binding of Control Serum Blood-Bank to Looped peptides [1],Binding of Control serum Blood-bank to linear peptides [1],Binding of Control serum LUMC to linear peptides [1],Binding of Control serum LUMC to looped peptides [1],other results
LGRCDIKDLPKEITV,0.1,0.6,,,,,Binding of Control Serum Blood-Bank to Looped peptides of the protein M of SARS-CoV Urbani [1]: 0.8; Binding of Control serum Blood-bank to linear peptides of the protein M of SARS-CoV Urbani [1]: 0.7; Binding of Control serum LUMC to linear peptides of the protein M of SARS-CoV Urbani [1]: 0.5; Binding of Control serum LUMC to looped peptides of the protein M of SARS-CoV Urbani [1]: 0.8
LIIIMRTFRIAIWNL,0.5,0.3,,,,,Binding of Control Serum Blood-Bank to Looped peptides of the protein X3 of SARS-CoV Urbani [1]: 0.6; Binding of Control serum Blood-bank to linear peptides of the protein X3 of SARS-CoV Urbani [1]: 0.7; Binding of Control serum LUMC to linear peptides of the protein X3 of SARS-CoV Urbani [1]: 0.6; Binding of Control serum LUMC to looped peptides of the protein X3 of SARS-CoV Urbani [1]: 0.7
LKTMSLYMAISPKFT,,,0.6,0.7,0.6,0.6,Binding of a rabbit serum to linear peptides [2]: 0.1; Binding of a rabbit serum to looped peptides [2]: 0.4
LTKKNYSELDDEEPM,0.2,0.4,,,,,Binding of Control Serum Blood-Bank to Looped peptides of the protein X3 of SARS-CoV Urbani [1]: 0.8; Binding of Control serum Blood-bank to linear peptides of the protein X3 of SARS-CoV Urbani [1]: 0.9; Binding of Control serum LUMC to linear peptides of the protein X3 of SARS-CoV Urbani [1]: 0.6; Binding of Control serum LUMC to looped peptides of the protein X3 of SARS-CoV Urbani [1]: 1.0
LYHYQECVRGTTVLL,0.6,0.3,0.7,0.6,0.6,0.6,
MDPIYDEPTTTTSVP,,,0.3,0.6,0.5,0.3,Binding of a rabbit serum to linear peptides [2]: 0.1; Binding of a rabbit serum to looped peptides [2]: 0.3
NGTITVEELKQLLEQ,,,,,,,Binding of Control Serum Blood-Bank to Looped peptides of the protein M of SARS-CoV Urbani [1]: 0.6; Binding of Control serum Blood-bank to linear peptides of the protein M of SARS-CoV Urbani [1]: 0.7; Binding of Control serum LUMC to linear peptides of the protein M of SARS-CoV Urbani [1]: 0.5; Binding of Control serum LUMC to looped peptides of the protein M of SARS-CoV Urbani [1]: 0.8; Recognition of the peptide by the rabbit serum [2]: recognized
NSKKTTKLVVILRIG,,,0.7,0.4,0.9,0.7,Recognition of the peptide by the rabbit serum [2]: recognized
NVSLVKPTVYVYSRV,,,0.7,0.6,0.5,0.8,Binding of a rabbit serum to linear peptides [2]: 0.5; Binding of a rabbit serum to looped peptides [2]: 0.3
NYKLNTDHAGSNDNI,0.5,0.0,,,,,Binding of Control Serum Blood-Bank to Looped peptides of the protein M of SARS-CoV Urbani [1]: 0.6; Binding of Control serum Blood-bank to linear peptides of the protein M of SARS-CoV Urbani [1]: 0.7; Binding of Control serum LUMC to linear peptides of the protein M of SARS-CoV Urbani [1]: 0.5; Binding of Control serum LUMC to looped peptides of the protein M of SARS-CoV Urbani [1]: 0.8
NYSELDDEEPMELDY,0.4,0.3,,,,,Binding of Control Serum Blood-Bank to Looped peptides of the protein X3 of SARS-CoV Urbani [1]: 0.8; Binding of Control serum Blood-bank to linear peptides of the protein X3 of SARS-CoV Urbani [1]: 0.9; Binding of Control serum LUMC to linear peptides of the protein X3 of SARS-CoV Urbani [1]: 0.9; Binding of Control serum LUMC to looped peptides of the protein X3 of SARS-CoV Urbani [1]: 0.9
PFHPLADNKFALTCT,0.4,0.4,0.9,0.7,0.8,0.9,
PLADNKFALTCTSTH,1.1,0.0,0.6,0.8,0.5,0.7,
